Four compounds from patent publication US20080038809A1, “ISOLATED LECTIN POLYPEPTIDES CONSISTING OF TRUNCATED […] UDP-GalNAc:POLYPEPTIDE N- ACETYLGALACTOSAMINYLTRANSFERASES” (GLYCOZYM APS, priority 2002, published 2008) can be followed below.

In experiment [1] the test system is GalNAc-T2 and -T4 secreted soluble enzymes as well as lectin domains. Put plainly: Inhibition of GalNAc-transferase lectin binding to GalNAc-glycopeptides, statements on GalNAc-T2 and -T4 together. Also noted: species or system human. To be noted: enzymes and isolated lectins. As for the experimental part:
(§1) Direct binding ELISA assay was developed as follows: Polystyrene microtiter plates (Maxisorb, Nunc, Denmark) were coated with peptides or enzymatically glycosylated glycopeptides in PBS overnight at 4° C. Plates were washed and blocked with 0.1% Tween20 and 0.2% BSA in PBS for 1 h at room temperature, followed by incubation with biotinylated proteins in PBS with 0.05% Tween20 for 2 h at room temperature. After four washes with PBS, plates were incubated with 1:2,000 dilution streptavidin-HRP (Sigma) in PBS for 30 min at room temperature and washed four times with PBS. Development was performed with 0.5 mg/ml o-phenylenediamine and 0.02% H2O2 at room temperature for 15 min, and reaction stopped by adding 100 μl/well of 0.5 N H2SO4. Competitive inhibition assays were done at end-point titers of GalNAc-transferase proteins with one hour preincubations with inhibitor.
Lectins and antibodies to carbohydrates usually recognize the anomeric configuration of the sugar structures they bind.
(§2) Inhibition experiments were used to further define the binding specificity of GalNAc-T2 and -T4 secreted soluble enzymes as well as lectin domains compared to Helix Pomatia lectin (Table IV).

Experiment [2] concerns the target human GalNAc-T4 (UDP-GalNAc:polypeptide N-acetylgalactosaminyltransferase T4) isolated truncated lectin domain (T4ld), HIS-tagged, amino acid residues 405-578 o (Homo sapiens, UniProt Q8N4A0). Put plainly: biochemical. Conditions: isolated lectin domain. Format: binding.
From the text: (§3) In order to minimize the size and functional complexity of GalNAc-transferase lectins to be used as probes for binding studies, we used multiple sequence alignment analysis to predict and design suitable expression constructs for isolated lectin domains (FIG. 2). In the present invention a direct binding assay was developed using isolated lectin domains of GalNAc-T4 and -T2 with minimal size (FIG. 5). […] The lectin Helix Pomatia (HP) was used as a control plant lectin with known binding specificity for […].
as §1
(§4) In binding studies using lectins without biotinylation antibodies to the HIS-tag and the T7-tag, or in some experiments antibodies raised to GalNAc-T2 and -T4 enzymes were used to detect binding.
as §2
(§5) The ligand target used in this Example is a GalNAc-MUC1 glycopeptide produced enzymatically from synthetic peptides.

The test system of experiment [3] is cell surface expression of MUC1 in CHO1d1D/MUC1F-clone2 cells. Put plainly: Cell surface expression of MUC1 by immunofluorescence. Format: cell-based, Chinese hamster (CHO 1d1D cells); human MUC1. Conditions: 1 mM, cells grown in GalNAc. As for the experimental part: FIGS. 11A-D are a series of photomicrographs (left to right from top to bottom of) anti-MUC1 antibody immunofluorescence staining of CHO 1d1D cells stably transfected with a full coding cell surface MUC1 (CHO1d1D/MUC1F-clone2). Cell grown in the presence of GalNAc were treated with the O-glycosylation inhibitor GalNAcα-benzyl or control GlcNAcα-benzyl. Cells were grown in plates and stained without permeabilization as described in Example 4.
We therefore investigated the effect of treatment with GalNAcα-benzyl of CHO1d1D/MUC1F-clone2 cells grown in the presence of GalNAc. CHO1d1D/MUC1F-clone2 cells were seeded in 6 well plates at a density of 0.2×10^6 per well and were grown for 6 hours in Hams F12 medium with serum until approximately 30% subconfluent. […] After 18 hours, the medium was replaced with fresh Optimem containing the sugars and benzyl derivatives as above and grown for 12-48 hours. Initially we analyzed surface expression of MUC1 by immunocytology. Cells were washed once in PBS-CMF (phosphate buffered saline Calcium and Magnesium free) after carefully removing the medium from the wells and subsequently fixed in 2 ml 3% paraformaldehyde at 25° C. for 20 min followed by three washes with PBS-CMF 3 times. […]

Experiment [4] concerns the target T1, human GalNAc-T2 (UDP-GalNAc:polypeptide N-acetylgalactosaminyltransferase T2) isolated truncated lectin domain (T2ld), HIS-tagged, amino acid residues 408-571 o (Homo sapiens, UniProt Q10471).
T1 sequence (Q10471 408-571): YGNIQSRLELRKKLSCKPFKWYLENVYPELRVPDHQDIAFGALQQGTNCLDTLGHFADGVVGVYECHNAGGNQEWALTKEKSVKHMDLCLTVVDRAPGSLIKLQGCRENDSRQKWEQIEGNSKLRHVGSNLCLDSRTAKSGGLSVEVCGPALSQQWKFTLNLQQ
Format: binding.
From the text: as §3, §1, §4, §2, §5

Experiment [5] relates to secreted MUC1, wild type CHO/MUC1sol-cloneC4. Put plainly: MUC1 secretion by western blot of medium. Format: cell-based, Chinese hamster (CHO cells); human MUC1. Conditions: 1-2 mM. The source says:
Because GalNAcα-benzyl exerts separate effects on O-glycan processing and mucin expression, the use of the novel selective inhibitor of mucin expression, GalNAcβ-benzyl, allow analysis of mucin expression and secretion in different cell line models. Examples of human cell lines (available from ATCC, USA) expressing and secreting mucins are without limitations LS174T, HT29, Colo205, CALU, MCF7, T47D, NCI-H292, and A549. Most human adenocarcinoma cell lines express and secret mucins and analysis with antibodies to detect protein expression or probes to detect mRNA can reveal the types and quantities of mucins. […] This and other cell lines can be used to treat with 2 mM GalNAcβ-benzyl. In this Example we used wild type CHO/MUC1sol-cloneC4 and western blot analysis of medium of cells treated with 1-2 mM GalNAcα-benzyl, GalNAcβ-benzyl, or the control GlcNAcα-benzyl. […] The inhibitory effect on mucin secretion can be quantified by a number of assays known to the skilled in the art including western blot, ELISA, gelfiltration, immunocapture, and other assays.
A general note: In western blotting, separated proteins are transferred to a membrane and probed.

Sequence of human GalNAc-T4 (UDP-GalNAc:polypeptide N-acetylgalactosaminyltransferase T4) isolated truncated lectin domain (T4ld), HIS-tagged, amino acid residues 405-578 o (Q8N4A0 405-578): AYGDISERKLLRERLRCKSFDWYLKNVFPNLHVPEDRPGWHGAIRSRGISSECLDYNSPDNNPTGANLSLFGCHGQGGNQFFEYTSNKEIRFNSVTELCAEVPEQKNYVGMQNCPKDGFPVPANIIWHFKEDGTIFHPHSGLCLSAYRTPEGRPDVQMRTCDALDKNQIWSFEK

Turning to `CC(=O)N[C@H]1[C@@H](OCc2ccccc2)O[C@H](CO)[C@H](O)[C@@H]1O` [BzlαGalNAc, benzyl-N-acetyl-alpha-D-galactosaminide], the “inhibition of GalNAc-T2 and -T4 lectin mediated binding, in words” value in experiment [1] was “equal inhibition”.

`CC(=O)N[C@H]1[C@@H](OCc2ccccc2)O[C@H](CO)[C@H](O)[C@@H]1O` [GalNAcα-benzyl, benzyl-N-acetyl-alpha-D-galactosaminide]: the “inhibition of GalNAc-T4 lectin domain binding (in words)” value in experiment [2] is reported as “inhibited binding to the same degree”. Besides, the “inhibition of cell surface expression of MUC1” value in experiment [3] is on record as “strong inhibition of cell surface expression of MUC1”. Further, the “inhibition of GalNAc-T2 lectin domain binding (in words)” value in experiment [4] was “inhibited binding to the same degree”. In addition, in experiment [5], the “inhibition of secreted MUC1” value is “inhibition of secreted MUC1”.

For `CC(=O)N[C@H]1[C@H](OCc2ccccc2)O[C@H](CO)[C@H](O)[C@@H]1O` [GalNAcβ-benzyl], the “inhibition of GalNAc-T4 lectin domain binding (in words)” value in experiment [2] is on record as “inhibited binding to the same degree”. Besides, the “inhibition of GalNAc-T2 and -T4 lectin mediated binding, in words” value in experiment [1] is listed as “equal inhibition”. In addition, the “inhibition of GalNAc-T2 lectin domain binding (in words)” value in experiment [4] was “inhibited binding to the same degree”. In experiment [5], the “inhibition of secreted MUC1” value is on record as “inhibition of secreted MUC1”.

Take `CC(=O)N[C@H]1[C@@H](OCc2ccccc2)O[C@H](CO)[C@@H](O)[C@@H]1O` [GlcNAcα-benzyl]: the “inhibition of cell surface expression of MUC1” value in experiment [3] was “no inhibition”.
